The text below walks through data of ChEMBL document CHEMBL1151996, “Structure-activity relationships of anti-HIV-1 N-alkoxy- and N-allyloxy-benzimidazoles” (Bioorg Med Chem Lett, 1997).

In general, EC50 refers to the concentration giving half of the maximal effect.

For one test, the system named is C8166. The test is described as follows: Compound was evaluated for its cytotoxicity against C8166 cell line. Type of test: functional. Particulars: Homo sapiens, read-out: TC50 (the source's name).
With `CC(C)=CCOn1c(C=C(C)C)nc2c(C)cccc21`, the CC50 worked out at 50 µM.
Regarding `COc1ccc2nc(C=C(C)C)n(OCC=C(C)C)c2c1`, the CC50 stood at 80 µM.
Still for that read-out and setting: under `CC(C)=CCN1Cc2cc(Cl)cc3[nH]c(=S)n(c23)C[C@@H]1C` stands 62 µM; under `CC(C)=CCOn1c(C=C(C)C)nc2ccc(C)cc21`, 50 µM; under `C=CCOn1c(C=C)nc2ccc(C)cc21`, 20 µM.
Turning to `C=CCOn1c(C=C)nc2c(C)cccc21`, the CC50 is 16 µM.
With `C=CCOn1c(C=C)nc2ccc(OC)cc21`, the CC50 was 80 µM.
Still for that read-out and setting: for `Cc1cn([C@H]2C[C@H](N=[N+]=[N-])[C@@H](CO)O2)c(=O)[nH]c1=O` [ZIDOVUDINE] the value was above 1000 µM.

A further test relates to C8166. The test is described as follows: Tested against HIV-1 […] for Inhibition of viral replication by determining reduction of syncytia formation and antigen gp120 in C8166 cells, estimated by ELISA. Type of test: functional, cell-based. Particulars: Homo sapiens.
As for `CCCCOn1c(CCC)nc2c(C)cccc21`, the 50% effective concentration (EC50) was 0.5 µM.
Regarding `CC(C)=CCOn1c(C=C(C)C)nc2c(C)cccc21`, the EC50 was 10 µM.
With `CCOn1c(C)nc2c(C)cccc21`, the EC50 is 8 µM.
In the case of `CCCCCOn1c(CCCC)nc2c(C)cccc21`, the EC50 is 8 µM.
The same measure, in the same setting: under `CCCCCCCOn1c(CCCCCC)nc2c(C)cccc21` stands 40 µM; under `COc1ccc2nc(C=C(C)C)n(OCC=C(C)C)c2c1`, 16 µM; under `CC(C)=CCOn1c(C=C(C)C)nc2ccc(C)cc21`, 10 µM.
The same measure, in the same setting: under `C=CCOn1c(C=C)nc2ccc(C)cc21` stands 16 µM.
Still for that read-out and setting: for `C=CCOn1c(C=C)nc2c(C)cccc21` the value was 16 µM.
On to `C=CCOn1c(C=C)nc2ccc(OC)cc21`, for which the EC50 is 80 µM.
